This passage reports pIC50 results from US11661410B2 (GLOBAL BLOOD THERAPEUTICS, INC., priority 2017, dated 2023).

The pIC50 is the IC50 on a negative log10 scale, so that one unit is a factor of ten. A higher pIC50 goes with a small IC50.

Structures can show the parent of a compound that is named as a salt.

The target in the first experiment is G9a (Homo sapiens (Human), UniProt Q96KQ7). The experiment is described as follows: G9a AlphaLISA enzymatic activity assay.
G9a, sequence (Q96KQ7 whole entry): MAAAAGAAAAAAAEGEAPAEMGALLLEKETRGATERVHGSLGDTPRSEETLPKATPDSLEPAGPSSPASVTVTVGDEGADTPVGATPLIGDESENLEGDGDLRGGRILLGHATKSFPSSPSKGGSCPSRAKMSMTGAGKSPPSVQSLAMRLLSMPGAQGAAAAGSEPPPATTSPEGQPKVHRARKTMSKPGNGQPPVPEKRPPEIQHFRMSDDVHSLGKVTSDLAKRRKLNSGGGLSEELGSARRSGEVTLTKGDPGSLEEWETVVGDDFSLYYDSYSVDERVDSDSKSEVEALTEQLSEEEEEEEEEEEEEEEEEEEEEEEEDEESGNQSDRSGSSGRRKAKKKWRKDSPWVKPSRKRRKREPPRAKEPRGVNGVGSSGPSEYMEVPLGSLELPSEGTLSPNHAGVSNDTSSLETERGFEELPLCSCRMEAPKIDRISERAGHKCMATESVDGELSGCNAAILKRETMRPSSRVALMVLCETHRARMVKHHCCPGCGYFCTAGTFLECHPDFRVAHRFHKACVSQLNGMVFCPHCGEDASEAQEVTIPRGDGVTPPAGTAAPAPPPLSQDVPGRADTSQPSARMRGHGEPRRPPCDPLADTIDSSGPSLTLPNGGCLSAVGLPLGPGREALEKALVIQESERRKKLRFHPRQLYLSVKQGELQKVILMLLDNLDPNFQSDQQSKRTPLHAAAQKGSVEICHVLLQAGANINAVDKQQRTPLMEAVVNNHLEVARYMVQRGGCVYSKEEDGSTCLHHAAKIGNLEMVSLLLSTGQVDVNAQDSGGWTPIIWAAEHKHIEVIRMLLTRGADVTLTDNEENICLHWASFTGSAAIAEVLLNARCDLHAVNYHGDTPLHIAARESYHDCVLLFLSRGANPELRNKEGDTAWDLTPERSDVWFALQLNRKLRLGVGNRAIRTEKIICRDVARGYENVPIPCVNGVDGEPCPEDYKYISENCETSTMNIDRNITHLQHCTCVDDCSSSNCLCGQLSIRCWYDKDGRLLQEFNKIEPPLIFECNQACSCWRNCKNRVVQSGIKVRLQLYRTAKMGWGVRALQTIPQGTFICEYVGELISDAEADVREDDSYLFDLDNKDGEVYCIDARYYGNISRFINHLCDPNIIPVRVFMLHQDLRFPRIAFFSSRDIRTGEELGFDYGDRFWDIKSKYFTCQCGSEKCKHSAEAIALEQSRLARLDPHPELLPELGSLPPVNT
Details: not given
The class given is biochemical. (In general: Bead proximity is the source of the signal in Alpha formats.)
Compound `COc1cc2nc3c(c(N[C@@H]4CCCN(C)C4)c2cc1OC)CCC3` yielded a pIC50 of 5.48. `COc1cc2nc3c(c(NC4CCN(c5ccccc5Cl)CC4)c2cc1OC)CCC3` came in with a pIC50 of 6.72. `COc1cc2nc3c(c(NCc4cn(C)cn4)c2cc1OC)CCC3` [Example 41] returned a pIC50 of 5.32. On to `COc1cc2nc3ccccc3c(NC3CCN(C(C)C)CC3)c2cc1OC` [Example 46], for which the pIC50 is 6.75.

As for `COc1cc2nc3ccccc3c(NC3CCN(C(C)C)CC3)c2cc1OC` [Example 47], the pIC50 came to 7.1.

Staying with this experiment, now noted: G9a AlphaLISA; negative log of the IC50 value in molar.
As for `COc1cc2nc3c(c(NC4CCN(c5ccc(F)cc5)CC4)c2cc1OC)CCC3`, the pIC50 is 6.85. For `COc1cc2nc3c(c(NCC4CC(N(C)C)C4)c2cc1OC)CCC3` (stereo not shown), the pIC50 was 5.24. Consider `COc1cc2nc3c(c(NC(C)C)c2cc1OC)CCC3` [Example 1, 6,7-dimethoxy-N-(propan-2-yl)-1H,2H,3H-cyclopenta[b]quinolin-9-amine formate], for which the pIC50 stood at 5.97. Regarding `CCCOc1cc2nc3c(c(NC)c2cc1OC)CCC3` [Example 2, bis(formic acid)], the pIC50 was 5. Compound `CNc1c2c(nc3cc(OCCCOC)c(OC)cc13)CCC2` [Example 3] gave a pIC50 of 5.53. In the case of `CCOCCOc1cc2nc3c(c(NC)c2cc1OC)CCC3` [Example 4, bis(formic acid)], the pIC50 was 5.57. In the case of `COc1cc2c(NC(C)C)c3c(nc2cc1OCCOCCO)CCC3` [Example 6], the pIC50 was 5. `COc1cc2nc3c(c(NC4CCN(C)CC4)c2cc1OC)CCC3` [Example 9]: the pIC50 stood at 7.31.

For `COc1cc2nc3c(c(NC4CCCNC4)c2cc1OC)CCC3` (stereo not shown) [Example 10], the pIC50 turned out to be 7.66. `COc1cc2nc3c(c(NCC4CN(C)C4)c2cc1OC)CCC3` [Example 11] registered a pIC50 of 7.49. As for `COc1cc2nc3c(c(NC4CN(C(=O)OC(C)(C)C)C4)c2cc1OC)CCC3` [Example 12], the pIC50 came to 5.5. For `COc1cc2nc3c(c(NC4CNC4)c2cc1OC)CCC3` [Example 13], the pIC50 came to 7.22.

`COc1cc2nc3c(c(NC4CCN(c5ccccc5)CC4)c2cc1OC)CCC3` [Example 14] gave a pIC50 of 5.55. In the case of `CCN1CCC(Nc2c3c(nc4cc(OC)c(OC)cc24)CCC3)CC1` [Example 15], the pIC50 is listed as 7.67. In the case of `COc1cc2nc3c(c(NC4CCN(C5CCOCC5)CC4)c2cc1OC)CCC3` [Example 16, hydrochloride], the pIC50 was determined as 7.27. The same measure, in the same setting: to `COc1cc2nc3c(c(NC4CC5(C4)CN(C(=O)OC(C)(C)C)C5)c2cc1OC)CCC3` [Example 17] belongs 5.5; to `COc1cc2nc3c(c(NC4CC5(CNC5)C4)c2cc1OC)CCC3` [Example 19, bis(formic acid)], 5; to `CC(C)N1CCC(Nc2c3c(nc4cc5c(cc24)OCO5)CCC3)CC1` [Example 20], 7.53. With `COc1cc2c(NC(C)C)c3c(nc2cc1OCCCCCO)CCC3` [Example 21], the pIC50 was 5.3. As to `COc1cc2nc3c(c(NC4CCN(c5ccncc5)CC4)c2cc1OC)CCC3` [Example 22], the pIC50 is reported as 6.21. Consider `COc1cc2nc3c(c(NC4CCN(c5cccnc5)CC4)c2cc1OC)CCC3` [Example 23], for which the pIC50 came to 7.05. `COc1cc2nc3c(c(NC4CCN(c5ccccn5)CC4)c2cc1OC)CCC3` [Example 24]: the pIC50 stood at 6.11. The same measure, in the same setting: as for `COc1cc2nc3c(c(NC4CCN(c5cccc(F)c5)CC4)c2cc1OC)CCC3` [Example 25], the figure is 5.87. On the same count and under the same terms, to `COc1cc2nc3c(c(NC4CCN(c5ccccc5F)CC4)c2cc1OC)CCC3` [Example 26] belongs 7.53.

As for `CCN1CC(Nc2c3c(nc4cc(OC)c(OC)cc24)CCC3)C1` [Example 27], the pIC50 was 8.08. On to `COc1cc2nc3c(c(N[C@H]4CCCNC4)c2cc1OC)CCC3` [Example 28], for which the pIC50 came to 6.66. `COc1cc2nc3c(c(N[C@@H]4CCCNC4)c2cc1OC)CCC3` [Example 29] registered a pIC50 of 6.81. As to `COc1cc2nc3c(c(N[C@H]4CCCN(C)C4)c2cc1OC)CCC3` [Example 30], the pIC50 is reported as 7.83. Compound `COc1cc2c(NC(C)C)c3c(nc2cc1OCCCC(C)O)CCC3` (stereo not shown) [Example 31] came in with a pIC50 of 6.23. On to `COc1cc2nc3c(c(NC4CCN(C(C)C)CC4)c2cc1OC)CCCCC3` [Example 33], for which the pIC50 was 5.78. For `COc1cc2c(NC3CCN(C(C)C)CC3)c3c(nc2cc1O)CCC3` [Example 35], the pIC50 is listed as 7.94. The compound `COc1cc2c(NC3CCN(C(C)C)CC3)c3c(nc2cc1OC(F)F)CCC3` [Example 36] displayed a pIC50 of 5.42. Take `COc1cc2nc3c(c(NC4CCN(C(CO)CCl)CC4)c2cc1OC)CCC3` (stereo not shown) [Example 44]: the pIC50 is listed as 5.49. `COc1cc2nc3c(c(NC4CCN(Cc5ccccc5)CC4)c2cc1OC)CCC3` [Example 45] returned a pIC50 of 7.07. `COc1cc2nc3c(c(NC4CCN(c5ccccc5OC)CC4)c2cc1OC)CCC3` [Example 49] came in with a pIC50 of 5.63. In turn, `COc1cc2nc3c(c(NC4CCN(c5cccc(Cl)c5)CC4)c2cc1OC)CCC3` [Example 50] registered a pIC50 of 5.53. On the same count and under the same terms, as for `COc1cc2c(NC3CCN(C(C)C)CC3)c3c(nc2cc1OCCCO)CCC3` [Example 51], the figure is 6.45; as for `COc1cc2nc3c(c(NC4CCN(C(=O)COCc5ccccc5)CC4)c2cc1OC)CCC3` [Example 52], 6.39. In the case of `COc1cc2c(NC3CCN(C(C)C)CC3)c3c(nc2cc1OCCO)CCC3` [Example 53, 2-[(7-methoxy-9-{[1-(propan-2-yl)piperidin-4-yl]amino}-1H,2H,3H-cyclopenta[b]quinolin-6-yl)oxy]ethan-1-ol], the pIC50 is reported as 6.54.

Turning to `COc1cc2nc3c(c(NC4CCN(C(=O)CO)CC4)c2cc1OC)CCC3` [Example 54, 1-[4-({6,7-dimethoxy-1H,2H,3H-cyclopenta[b]quinolin-9-yl}amino)piperidin-1-yl]-2-hydroxyethan-1-one], the pIC50 was found to be 6.24.

Regarding `COc1cc2nc3c(c(NC4CCN(c5ccncc5F)CC4)c2cc1OC)CCC3` [Example 55, N-{6,7-dimethoxy-1H,2H,3H-cyclopenta[b]quinolin-9-yl}-1-(3-fluoropyridin-4-yl)piperidin-4-amine], the pIC50 came out at 6.05. For `COc1cc2c(NC3CCN(C(C)C)CC3)c3c(nc2cc1C1CC1)CCC3` [Example 57, N-{6-cyclopropyl-7-methoxy-1H,2H,3H-cyclopenta[b]quinolin-9-yl}-1-(propan-2-yl)piperidin-4-amine], the pIC50 turned out to be 6.72.

In turn, `COc1cc2nc3c(c(NC4CCN(C(N)=O)CC4)c2cc1OC)CCC3` [Example 58, 4-({6,7-dimethoxy-1H,2H,3H-cyclopenta[b]quinolin-9-yl}amino)piperidine-1-carboxamide] registered a pIC50 of 6.12. In the case of `COc1cc2nc3c(c(NC4CCN(c5cccc(F)c5F)CC4)c2cc1OC)CCC3` [Example 59, 1-(2,3-difluorophenyl)-N-{6,7-dimethoxy-1H,2H,3H-cyclopenta[b]quinolin-9-yl}piperidin-4-amine], the pIC50 was found to be 5.3. In turn, `COc1cc2nc3c(c(NC4CCN(C5CCCC5)CC4)c2cc1OC)CCC3` [Example 60, 1-cyclopentyl-N-{6,7-dimethoxy-1H,2H,3H-cyclopenta[b]quinolin-9-yl}piperidin-4-amine] had a pIC50 of 7.4. `COCCN1CCC(Nc2c3c(nc4cc(OC)c(OC)cc24)CCC3)CC1` [Example 61, N-{6,7-dimethoxy-1H,2H,3H-cyclopenta[b]quinolin-9-yl}-1-(2-methoxyethyl)piperidin-4-amine]: the pIC50 worked out at 6.7. The same measure, in the same setting: as for `COc1cc2nc3c(c(N[C@@H]4CCCNCC4)c2cc1OC)CCC3` [Example 62, (4R)-N-{6,7-dimethoxy-1H,2H,3H-cyclopenta[b]quinolin-9-yl}azepan-4-amine], the figure is 7.5; as for `COc1cc2nc3c(c(N[C@@H]4CCCN(C)CC4)c2cc1OC)CCC3` [Example 63, (4R)-N-{6,7-dimethoxy-1H,2H,3H-cyclopenta[b]quinolin-9-yl}-1-methylazepan-4-amine], 7.5; as for `CCN1CCC[C@@H](Nc2c3c(nc4cc(OC)c(OC)cc24)CCC3)CC1` [Example 64, (4R)-N-{6,7-dimethoxy-1H,2H,3H-cyclopenta[b]quinolin-9-yl}-1-ethylazepan-4-amine], 7.6. As to `COc1cc2nc3c(c(NCC4CCNC4)c2cc1OC)CCC3` (stereo not shown) [Example 65, 6,7-dimethoxy-N-[(pyrrolidin-3-yl)methyl]-1H,2H,3H-cyclopenta[b]quinolin-9-amine], the pIC50 is on record as 7.4.

The compound `COc1cc2nc3c(c(NCC4CCCN4)c2cc1OC)CCC3` (stereo not shown) [Example 66, 6,7-dimethoxy-N-[(pyrrolidin-2-yl)methyl]-1H,2H,3H-cyclopenta[b]quinolin-9-amine] had a pIC50 of 7.3. Take `COc1cc2nc3c(c(NCC4CCNCC4)c2cc1OC)CCC3` [Example 67, 6,7-dimethoxy-N-[(piperidin-4-yl)methyl]-1H,2H,3H-cyclopenta[b]quinolin-9-amine]: the pIC50 is 7. For the compound `COc1cc2nc3c(c(NC[C@@H]4CCCNC4)c2cc1OC)CCC3` [Example 68, 6,7-dimethoxy-N-{[(3R)-piperidin-3-yl]methyl}-1H,2H,3H-cyclopenta[b]quinolin-9-amine], the negative logarithm of the IC50 (pIC50) is 6.9. On to `COc1cc2nc3c(c(NC[C@H]4CCCNC4)c2cc1OC)CCC3` [Example 69], for which the pIC50 was determined as 7.1. The same measure, in the same setting: to `COc1cc2nc3c(c(NC4CCN(C(C)C)CC4)c2nc1OC)CCC3` [Example 134, N-[2,3-dimethoxy-6H,7H,8H-cyclopenta[b]1,5-naphthyridin-9-yl]-1-(propan-2-yl)piperidin-4-amine] belongs 6.8. Regarding `COc1cc2nc3c(c(N[C@@H]4CCCNC4)c2nc1OC)CCC3` [Example 149, (3R)-N-[2,3-dimethoxy-6H,7H, 8Hcyclopenta[b]1,5naphthyridin-9-yl]piperidin-3-amine], the pIC50 worked out at 7.2.
